Data published in ChEMBL document CHEMBL1122822 (1985).

Tests used:
[1] = tested on: MCF7; experiment: Effect of compound with 10e-8 M estradiol on the growth of MCF-7 cells at a concentration 10 e-7 M, percentage of control value being 91; format: functional, Homo sapiens
[2] = tested on: MCF7; experiment: Effect of compound with 10e-8 M estradiol on the growth of MCF-7 cells at a concentration of,10 e-6 M, percentage of control value being 90; format: functional, Homo sapiens
[3] = tested on: MCF7; experiment: Effect on the growth of MCF-7 cells at a concentration of,10 e-7 M, percentage of control value being 84; format: functional, Homo sapiens
[4] = tested on: MCF7; experiment: Effect of compound on the growth of MCF-7 cells at a concentration of,10 e-6 M, percentage of control value being 63; format: functional, Homo sapiens
[5] = tested on: MCF7; experiment: Effect of compound with 10e-8 M estradiol on the growth of MCF-7 cells at a concentration of 10 e-6 M, percentage of control value being 32; format: functional, Homo sapiens
[6] = tested on: MCF7; experiment: Effect on the growth of MCF-7 cells at a concentration of 10 e-7 M, percentage of control value being 36; format: functional, Homo sapiens
[7] = tested on: MCF7; experiment: Effect of compound on the growth of MCF-7 cells at a concentration of 10 e-6 M Experiment 2, percentage of control value being 13; format: functional, Homo sapiens
[8] = tested on: MCF7; experiment: Effect of compound on the growth of MCF-7 cells at a concentration of 10 e-6 M, percentage of control value being 23; format: functional, Homo sapiens
[9] = tested on: MCF7; experiment: Effect of compound on the growth of MCF-7 cells at a concentration of 10 e-7 M Experiment 2, percentage of control value being 15; format: functional, Homo sapiens
[10] = tested on: MCF7; experiment: Effect of compound with 10e-8 M estradiol on the growth of MCF-7 cells at a concentration 10 e-7 M, percentage of control value being 85; format: functional, Homo sapiens
[11] = tested on: MCF7; experiment: Effect of compound with 10e-8 M estradiol on the growth of MCF-7 cells at a concentration of,10 e-6 M, percentage of control value being 74; format: functional, Homo sapiens
[12] = tested on: MCF7; experiment: Effect on the growth of MCF-7 cells at a concentration of,10 e-7 M, percentage of control value being 87; format: functional, Homo sapiens
[13] = tested on: MCF7; experiment: Effect of compound on the growth of MCF-7 cells at a concentration of,10 e-6 M, percentage of control value being 85; format: functional, Homo sapiens
[14] = tested on: MCF7; experiment: Effect of compound with 10e-8 M estradiol on the growth of MCF-7 cells at a concentration 10 e-7 M, percentage of control value being 77; format: functional, Homo sapiens
[15] = molecular target: Estrogen receptor (Rattus norvegicus) (UniProt P06211+Q62986)
Description: In vitro relative binding affinity for rat uterine estrogen receptor compared to [3H]estradiol

[16] = tested on: MCF7; experiment: Effect of compound with 10e-8 M estradiol on the growth of MCF-7 cells at a concentration of 10 e-6 M, percentage of control value being 68; format: functional, Homo sapiens
[17] = tested on: MCF7; experiment: Effect on the growth of MCF-7 cells at a concentration of 10 e-7 M, percentage of control value being 67; format: functional, Homo sapiens
[18] = tested on: MCF7; experiment: Effect of compound on the growth of MCF-7 cells at a concentration of 10 e-6 M, percentage of control value being 35; format: functional, Homo sapiens
[19] = tested on: MCF7; experiment: Effect of compound with 10e-8 M estradiol on the growth of MCF-7 cells at a concentration 10 e-7 M, percentage of control value being 90; format: functional, Homo sapiens
[20] = tested on: MCF7; experiment: Effect on the growth of MCF-7 cells at a concentration of,10 e-7 M, percentage of control value being 80; format: functional, Homo sapiens
[21] = tested on: MCF7; experiment: Effect of compound with 10e-8 M estradiol on the growth of MCF-7 cells at a concentration 10 e-7 M, percentage of control value being 13; format: functional, Homo sapiens
[22] = tested on: MCF7; experiment: Effect on the growth of MCF-7 cells at a concentration of,10 e-7 M, percentage of control value being 20; format: functional, Homo sapiens
[23] = tested on: MCF7; experiment: Effect of compound with 10e-8 M estradiol on the growth of MCF-7 cells at a concentration 10 e-7 M, percentage of control value being 12; format: functional, Homo sapiens

## CC/C(=C(\c1ccccc1)c1ccc(OCCN(C)C)cc1)c1ccccc1 [TAMOXIFEN]
[1]
  DNA: 15.2 µg
[2]
  DNA: 15.1 µg
[3]
  DNA: 14 µg
[4]
  DNA: 10.6 µg

## CCC(=C(c1ccc(O)cc1)c1ccc(OCCN(C)C)cc1)c1ccccc1
[5]
  DNA: 5.4 µg
[6]
  DNA: 6 µg
[7]
  DNA: 1.1 µg
[8]
  DNA: 3.8 µg
[9]
  DNA: 1.2 µg
[10]
  DNA: 14.2 µg

## CC/C(=C(/c1ccc(OCCN(C)C)cc1)c1ccccc1O)c1ccccc1
[11]
  DNA: 12.4 µg
[12]
  DNA: 14.6 µg
[13]
  DNA: 14.2 µg
[14]
  DNA: 12.8 µg

## CC/C(=C(\c1ccccc1)c1ccc(OCCN(C)C)cc1)c1cccc(O)c1
[15]
  IC50: 30 nM

## CC/C(=C(/c1ccc(OCCN(C)C)cc1)c1cccc(O)c1)c1ccccc1 [DROLOXIFENE]
[16]
  DNA: 11.3 µg
[17]
  DNA: 11.2 µg
[18]
  DNA: 5.9 µg
[19]
  DNA: 15 µg

## CC/C(=C(/c1ccc(OCCN(C)C)cc1)c1ccc(O)cc1O)c1ccccc1
[20]
  DNA: 6.6 µg
[21]
  DNA: 1.1 µg

## CC/C(=C(/c1ccc(OCCN(C)C)cc1)c1ccc(O)cc1C)c1ccccc1
[22]
  DNA: 1.6 µg
[23]
  DNA: 1 µg
